Assay results from patent US9611252B2 (LifeSci Pharmaceuticals, Inc., priority 2013, dated 2017).
Where two headings read alike, the source gives them in different places.

What was measured:
human Plasma Kallikrein = human Plasma Kallikrein (Homo sapiens (Human), UniProt P03952); assay: In vitro enzyme inhibition of human plasma kallikrein (PFR-AMC cleavage); format: biochemical; conditions: human plasma kallikrein, Pro-Phe-Arg-AMC substrate, 37° C.; read-out: hPK IC50
Method: The ability of the compounds disclosed herein to inhibit human plasma kallikrein activity was quantified according to the procedures below.
A 10 mM solution of the test compound was made in DMSO. […] A control tube containing only DMSO is included. 16 μL of each compound test solution was combined with 384 μL of assay buffer (50 mM Tris-HCl pH 7.5, 150 mM NaCl, 0.01% Triton X-100) to yield a “4× test compound buffer stock”.
These solutions are hereby referred to as 4×hPK and 2×PFR-AMC, respectively.
50 μL was removed from this mixture and placed into duplicate wells on a Microfluor 1Black U-bottom microtiter plate (Thermo Scientific). This plate was incubated for 5 minutes at 37° C. To each well, 50 μL of pre-warmed 2×PFR-AMC was added to start the enzymatic reaction. Cleavage of PFR-AMC was monitored in a Biotek Synergy H4 reader set at 37° C. Readings are taken every 43 seconds for 1 hour. […] The IC50 is calculated using the Gen5 (Biotek Instruments).
The ability of the compounds in Table 3 to inhibit human plasma kallikrein activity was determined.

kallikrein = kallikrein (Homo sapiens (Human), UniProt P03952); assay: In vitro cellular assay (contact assay): kallikrein activity in ellagic acid-activated human plasma, substrate Z-FR-2-AMC; format: biochemical
Chain of kallikrein (P03952 20-638): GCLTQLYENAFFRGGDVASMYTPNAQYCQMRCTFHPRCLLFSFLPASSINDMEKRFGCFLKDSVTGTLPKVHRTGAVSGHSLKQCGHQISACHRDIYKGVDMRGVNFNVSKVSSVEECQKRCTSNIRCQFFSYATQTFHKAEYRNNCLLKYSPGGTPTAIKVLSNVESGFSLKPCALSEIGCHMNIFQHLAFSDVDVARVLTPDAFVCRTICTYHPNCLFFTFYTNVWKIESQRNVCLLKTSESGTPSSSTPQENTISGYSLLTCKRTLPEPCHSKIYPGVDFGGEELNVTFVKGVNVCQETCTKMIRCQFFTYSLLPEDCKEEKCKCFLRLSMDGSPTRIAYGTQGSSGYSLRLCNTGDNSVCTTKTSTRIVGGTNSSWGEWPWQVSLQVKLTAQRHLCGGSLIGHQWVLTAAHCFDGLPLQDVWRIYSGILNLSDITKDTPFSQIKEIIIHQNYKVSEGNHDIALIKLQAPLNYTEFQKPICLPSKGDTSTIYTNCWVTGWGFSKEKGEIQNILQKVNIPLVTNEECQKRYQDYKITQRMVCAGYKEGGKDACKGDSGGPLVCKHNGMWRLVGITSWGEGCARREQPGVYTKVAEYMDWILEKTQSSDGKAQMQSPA
Method: The ability of the compounds disclosed herein to inhibit cellular kallikrein activity was quantified and the respective EC50 value was determined.
All dilutions were prepared in an assay buffer comprising 50 mM Tris-HCl pH 7.2, 150 mM NaCl, and 0.01% Triton X-100.
The ten solutions of the test compounds, prepared by serial dilution, were further diluted 50-fold in the assay buffer.
Human plasma is thawed on ice and centrifuged for 15 min at 4° C. to remove platelets. A 1 mM stock solution of ellagic acid is diluted to 8 μM and mixed with human plasma, after removing platelets, at a ratio of 1:0.8.
A 22.5 μL volume of the final mixture of human plasma and ellagic acid was added to a 96-well microwell plate and the plate was incubated for 15 min at 37° C.
The CINH inhibitor at various concentrations, prepared by serial dilutions as described above, were added to the inhibitor control wells. […] Each CINH concentration is tested in duplicates.
The test compounds at various concentrations, also prepared by serial dilutions as described above, are added to the test wells. […] Each test compound concentration was tested in duplicates.
In addition to the inhibitor control and test wells, the 96 well assay plate includes positive control wells which contained the mixture of human plasma and ellagic acid without C1NH inhibitor or test compounds, and background wells which contained neither the mixture of human plasma and ellagic acid nor the test compounds. The total volume of liquid in positive control and background wells was brought up to 35 μL, using the assay buffer.
The assay plate containing C1NH inhibitors and test compounds mixed with human plasma and ellagic acid and appropriate controls was incubated at 37° C. for 5 min. […] The reagents were mixed well by shaking the plate gently for 30 sec.
The enzyme reaction was quantified by immediate kinetic reading of the assay plate using excitation/emission wavelengths of 330 nm/440 nm respectively. Fluorescence intensity was recorded for 60 min, using a time interval of 43 sec.
The inhibition activity of the test compounds were evaluated using the IC50 values, calculated according to the dose-response curve of the test compounds, fitted using the “log(inhibitor)-response (variable slope)” equation in GraphPadPrism software (GraphPad Software, Inc.).
The percentage inhibition was calculated using the following equation:
[formula] where, Mean(BG) is the average value of the fluorescence intensity of the background wells and Mean(PC) is the average value of the fluorescence intensity of the positive control wells.
Table 4 provides the EC50 values of various compounds disclosed herein.

[1] = human plasma activated with ellagic acid, Z-FR-2-AMC substrate, 37° C., read-out: Contact Assay EC50

Chain of human Plasma Kallikrein (P03952 20-638): as above

| IC50 (human Plasma Kallikrein) [µM] | EC50 (kallikrein; [1]) [µM] | SMILES | EC50 (kallikrein) [µM] |
| --- | --- | --- | --- |
| < 0.1 | < 0.1 | Cc1cnc2ccc(Cc3cc(C(=O)NCc4c(C)cc(N)nc4C)ccn3)cc2c1 [Example 144, N-((6-amino-2,4-dimethylpyridin-3-yl)methyl)-2-((3-methylquinolin-6-yl)methyl)isonicotinamide] | – |
| < 0.1 | 0.1 to 1 | Cc1cnc2c(C#N)cc(Cc3cc(C(=O)NCc4cc5c(Cl)c[nH]c5cc4F)ccn3)cc2c1 [Example 72, N-((3-chloro-6-fluoro-1H-indol-5-yl)methyl)-2-((8-cyano-3-methylquinolin-6-yl)methyl)isonicotinamide] | – |
| < 0.1 | 0.1 to 1 | O=C(NCc1cc2c(Cl)c[nH]c2cc1F)c1ccnc(Cc2ccc3ncc(Cl)cc3c2)c1 [Example 33, N-((3-chloro-6-fluoro-1H-indol-5-yl)methyl)-2-((3-chloroquinolin-6-yl)methyl)isonicotinamide] | – |
| < 0.1 | 0.1 to 1 | Cc1cnc2c(C(N)=O)cc(Cc3cc(C(=O)NCc4n[nH]c5ccc(Cl)cc45)ccn3)cc2c1 [Example 82, 6-((4-(((5-chloro-1H-indazol-3-yl)methyl)carbamoyl)pyridin-2-yl)methyl)-3-methylquinoline-8-carboxamide] | – |
| < 0.1 | < 0.1 | Cc1cc(N)nc(C)c1CNC(=O)c1ccnc(Cc2cc(Cl)c3ncc(Cl)cc3c2)c1 [Example 100, N-((6-amino-2,4-dimethylpyridin-3-yl)methyl)-2-((3,8-dichloroquinolin-6-yl)methyl)isonicotinamide] | – |
| < 0.1 | 0.1 to 1 | Cc1cnc2ccc(Cc3cc(C(=O)NCc4cc5c(Cl)c[nH]c5cc4F)ccn3)cc2c1 [Example 143, N-((3-chloro-6-fluoro-1H-indol-5-yl)methyl)-2-((3-methylquinolin-6-yl)methyl)isonicotinamide] | – |
| – | – | Cc1nc(N)ccc1CNC(=O)c1ccnc(Cc2cc(C#N)c3ncc(Cl)cc3c2)c1 [Example 56, N-(6-amino-2-methyl-pyridin-3-ylmethyl)-2-(3-chloro-8-cyano-quinolin-6-ylmethyl)-isonicotinamide] | 0.1 to 1 |
| 1 to 10 | – | Cc1cnc2ccc(Cc3cc(C(=O)NCc4ccc5c(N)noc5c4)ccn3)cc2c1 [Example 47, N-((3-aminobenzo[d]isoxazol-6-yl)methyl)-2-((3-methylquinolin-6-yl)methyl)isonicotinamide] | – |
| < 0.1 | – | Cc1cc(N)nc(C)c1CNC(=O)c1ccnc(Cc2ccc3nc(CN)ccc3c2)c1 [Example 46, N-((6-amino-2,4-dimethylpyridin-3-yl)methyl)-2-((2-(aminomethyl)quinolin-6-yl)methyl)isonicotinamide] | – |
| 0.1 to 1 | – | Cc1nc(N)ccc1CNC(=O)c1ccnc(Cc2cc(C(=O)O)c3ncc(Cl)cc3c2)c1 [Example 96, 6-((4-(((6-amino-2-methylpyridin-3-yl)methyl)carbamoyl)pyridin-2-yl)methyl)-3-chloroquinoline-8-carboxylic acid] | – |
| > 10 | – | Cc1nc(N(C)C)ccc1CNC(=O)c1ccnc(Cc2ccc3ncc(Cl)cc3c2)c1 [Example 44, 2-((3-chloroquinolin-6-yl)methyl)-N-((6-(dimethylamino)-2-methylpyridin-3-yl)methyl)isonicotinamide] | – |
| < 0.1 | – | Cc1ccc2ccc(Cc3cc(C(=O)NCc4ccc5c(N)nccc5c4)ccn3)cc2n1 [Example 127, N-((1-aminoisoquinolin-6-yl)methyl)-2-((2-methylquinolin-7-yl)methyl)isonicotinamide] | – |
| 0.1 to 1 | – | Cc1ccc2nc(S(C)(=O)=O)c(Cc3cc(C(=O)NCc4cc5c(Cl)c[nH]c5cc4F)ccn3)cc2c1 [Example 109, N-((3-chloro-6-fluoro-1H-indol-5-yl)methyl)-2-((6-methyl-2-(methylsulfonyl)quinolin-3-yl)methyl)isonicotinamide] | – |
| < 0.1 | – | Cc1cc(N)nc(C)c1CNC(=O)c1ccnc(Cc2ccc3nccc(C#N)c3c2)c1 [Example 138, N-((6-amino-2,4-dimethylpyridin-3-yl)methyl)-2-((4-cyanoquinolin-6-yl)methyl)isonicotinamide] | – |
| < 0.1 | – | Cc1cc(N)nc(C)c1CNC(=O)c1ccnc(Cc2cc(C(=O)O)c3ncc(Cl)cc3c2)c1 [Example 93, 6-((4-(((6-amino-2,4-dimethylpyridin-3-yl)methyl)carbamoyl)pyridin-2-yl)methyl)-3-chloroquinoline-8-carboxylic acid] | – |
| < 0.1 | – | N#Cc1cnc2ccc(Cc3cc(C(=O)NCc4cc5c(Cl)c[nH]c5cc4F)ccn3)cc2c1 [Example 5, N-((3-chloro-6-fluoro-1H-indol-5-yl)methyl)-2-((3-cyanoquinolin-6-yl)methyl)isonicotinamide] | – |
| < 0.1 | – | O=C(NCc1n[nH]c2ccc(Cl)cc12)c1ccnc(Cc2ccc3ncc(Cl)cc3c2)c1 [Example 37, N-(5-chloro-1H-indazol-3-ylmethyl)-2-(3-chloro-quinolin-6-ylmethyl)-isonicotinamide] | – |
| < 0.1 | – | COC(=O)c1cc(Cc2cc(C(=O)NCc3c(C)cc(N)nc3C)ccn2)cc2cc(Cl)cnc12 [Example 92, methyl 6-((4-(((6-amino-2,4-dimethylpyridin-3-yl)methyl)carbamoyl)pyridin-2-yl)methyl)-3-chloroquinoline-8-carboxylate] | – |
| < 0.1 | – | Cc1cc(N)nc(C)c1CNC(=O)c1ccnc(Cc2cnc3cc(F)ccc3c2)c1 [Example 122, N-((6-amino-2,4-dimethylpyridin-3-yl)methyl)-2-((7-fluoroquinolin-3-yl)methyl)isonicotinamide] | – |

| SMILES | IC50 (human Plasma Kallikrein) [µM] | EC50 (kallikrein; [1]) [µM] | EC50 (kallikrein) [µM] |
| --- | --- | --- | --- |
| N#Cc1cc(Cc2cc(C(=O)NCc3ccc4[nH]cc(Cl)c4c3F)ccn2)cc2cc(Cl)cnc12 [Example 51, N-((3-chloro-4-fluoro-1H-indol-5-yl)methyl)-2-((3-chloro-8-cyanoquinolin-6-yl)methyl)isonicotinamide] | < 0.1 | – | – |
| Cc1cc(C(=O)NCc2c(C)cc(N)nc2C)cc(Cc2ccc3ncc(Cl)cc3c2)n1 [Example 104, N-((6-amino-2,4-dimethylpyridin-3-yl)methyl)-2-((3-chloroquinolin-6-yl)methyl)-6-methylisonicotinamide] | < 0.1 | – | – |
| Cc1cc(N)[n+]([O-])c(C)c1CNC(=O)c1ccnc(Cc2ccc3ncc(Cl)cc3c2)c1 [Example 98, 6-amino-3-((2-((3-chloroquinolin-6-yl)methyl)isonicotinamido)methyl)-2,4-dimethylpyridine 1-oxide] | 0.1 to 1 | – | – |
| N#Cc1cc(Cc2cc(C(=O)NCc3n[nH]c4ccc(Cl)cc34)ccn2)cc2cc(Cl)cnc12 [Example 54, 2-(3-chloro-8-cyano-quinolin-6-ylmethyl)-N-(5-chloro-1H-indazol-3-ylmethyl)-isonicotinamide] | < 0.1 | – | – |
| Cc1nc(N)c(C(N)=O)cc1CNC(=O)c1ccnc(Cc2ccc3ncc(Cl)cc3c2)c1 [Example 27, 2-amino-5-((2-((3-chloroquinolin-6-yl)methyl)isonicotinamido)methyl)-6-methylnicotinamide] | > 10 | – | – |
| CS(=O)(=O)c1ccc2ncc(Cc3cc(C(=O)NCc4ccc5c(N)nccc5c4)ccn3)cc2c1 [Example 13, N-((1-aminoisoquinolin-6-yl)methyl)-2-((6-(methylsulfonyl)quinolin-3-yl)methyl)isonicotinamide] | 0.1 to 1 | – | – |
| N#Cc1cc(Cc2cc(C(=O)NCc3cnc4[nH]cc(Cl)c4c3)ccn2)cc2cc(Cl)cnc12 [Example 55, 2-(3-chloro-8-cyano-quinolin-6-ylmethyl)-N-(3-chloro-1H-pyrrolo[2,3-b]pyridin-5-ylmethyl)-isonicotinamide] | < 0.1 | – | – |
| Cc1cc(N)nc(C)c1CNC(=O)c1ccnc(Cc2ccc3[nH]cc(C)c3c2)c1 [Example 25, N-((6-amino-2,4-dimethylpyridin-3-yl)methyl)-2-((3-methyl-1H-indol-5-yl)methyl)isonicotinamide] | 0.1 to 1 | – | – |
